From the NIST ThermoML archive (doi:10.1016/j.jct.2005.03.003)
Numbers after ± are expanded uncertainties.

How the values were obtained:
[1] = Liquid; for mass density: 298.2 K, 101.33 kPa
[2] = refractive index (Na D-line) (dimensionless); conditions: 298.2 K; 101.33 kPa; Liquid; Standard Abbe refractometry

mass density [1]	Normal boiling temperature ([1]; Fischer boiling point apparatus:FP)	Compound	refractive index [2]	mass density ([1]; Vibrating tube method)	Normal boiling temperature ([1]; Fischer boiling point apparatus)
1049.44 ± 3 kg/m3	118.1 ± 0.2 °C	CC(=O)O [acetic acid]	1.3715 ± 0.0012	–	–
–	–	CCCCOC(=O)c1ccccc1C(=O)OCCCC [dibutyl phthalate]	1.4906 ± 0.0013	1050.13 ± 1.4 kg/m3	340.1 ± 0.2 °C
